Tests used:
[1] = tested on: MT4; test: Inhibition of the spread of HIV infection (K-60C) in MT-4 human T-lymphoid cells; format: functional; settings: read-out: CIC95
[2] = tested on: MT4; test: Inhibition of the spread of HIV infection (V-18C) in MT-4 human T-lymphoid cells; format: functional; settings: read-out: CIC95
[3] = tested on: MT4; test: Inhibition of the spread of HIV infection wild type(WT) in MT-4 human T-lymphoid cells; format: functional; settings: read-out: CIC95
[4] = biological target: T1, Human immunodeficiency virus type 1 protease (Human immunodeficiency virus 1, UniProt Q72874); test: Inhibition of HIV protease of HIV K-60C mutant strain
[5] = biological target: T1, Human immunodeficiency virus type 1 protease; test: Inhibition of HIV protease of HIV V-18C mutant strain
[6] = biological target: T1, Human immunodeficiency virus type 1 protease; test: Inhibition of wild type HIV protease

| SMILES | IC95 [1] | IC95 [2] | IC95 [3] | IC50 [4] | IC50 [5] | IC50 [6] |
| --- | --- | --- | --- | --- | --- | --- |
| Cc1cccc(Cl)c1CNC(=O)[C@H]1N(C(=O)[C@@H](O)C[C@@H](Cc2ccccc2)C(=O)N[C@H]2c3ccccc3OC[C@H]2O)CSC1(C)C | 46 nM | 23 nM | 31 nM | – | – | – |
| Cc1cccc(C)c1CNC(=O)[C@H]1N(C(=O)[C@@H](O)C[C@@H](Cc2ccccc2)C(=O)N[C@H]2c3ccccc3C[C@H]2O)CSC1(C)C | 125 nM | 31 nM | 31 nM | 0.062 nM | 0.062 nM | 0.04 nM |
| Cc1ccnc(C)c1CNC(=O)[C@H]1N(C(=O)[C@@H](O)C[C@@H](Cc2ccccc2)C(=O)N[C@H]2c3ccccc3OC[C@H]2O)CSC1(C)C | 250 nM | 125 nM | 187 nM | – | – | – |
| Cc1ccccc1CNC(=O)[C@H]1N(C(=O)[C@@H](O)C[C@@H](Cc2ccccc2)C(=O)N[C@H]2c3ccccc3OC[C@H]2O)CSC1(C)C | 125 nM | 41 nM | 19 nM | – | – | – |
| Cc1cccc(C)c1CNC(=O)[C@H]1N(C(=O)[C@H](O)C[C@@H](Cc2ccccc2)C(=O)N[C@H]2c3ccccc3OC[C@H]2O)CSC1(C)C | 70 nM | 15 nM | 15 nM | – | – | – |
| Cc1ccccc1CNC(=O)[C@H]1N(C[C@@H](O)C[C@@H](Cc2ccccc2)C(=O)N[C@H]2c3ccccc3OC[C@H]2O)CSC1(C)C | > 1000 nM | 1000 nM | 250 nM | 7.9 nM | 8.8 nM | 0.52 nM |
| CC1(C)SCN(C(=O)[C@@H](O)C[C@@H](Cc2ccccc2)C(=O)N[C@H]2c3ccccc3OC[C@H]2O)[C@@H]1C(=O)NCc1c(Cl)cccc1Cl | 250 nM | 16 nM | < 8 nM | – | – | – |
| CC1(C)SCN(C(=O)[C@@H](O)C[C@@H](Cc2ccccc2)C(=O)N[C@H]2c3ccccc3OC[C@H]2O)[C@@H]1C(=O)NCc1c(F)cccc1F | 250 nM | 62 nM | 23 nM | – | – | – |
| Cc1noc(C)c1CNC(=O)[C@H]1N(C(=O)[C@@H](O)C[C@@H](Cc2ccccc2)C(=O)N[C@H]2c3ccccc3OC[C@H]2O)CSC1(C)C | 250 nM | 62 nM | 156 nM | – | – | – |
| Cc1nsc(C)c1CNC(=O)[C@H]1N(C(=O)[C@@H](O)C[C@@H](Cc2ccccc2)C(=O)N[C@H]2c3ccccc3OC[C@H]2O)CSC1(C)C | 250 nM | 31 nM | 16 nM | – | – | – |
| Cc1cccc(C)c1CNC(=O)[C@H]1N(C(=O)[C@@H](O)C[C@@H](Cc2ccccc2)C(=O)N[C@H]2c3ccccc3OC[C@H]2O)CSC1(C)C | 500 nM | 62 nM | 47 nM | – | – | – |
| CC(C)(C)NC(=O)[C@@H]1CN(Cc2cccnc2)CCN1C[C@@H](O)C[C@@H](Cc1ccccc1)C(=O)N[C@H]1c2ccccc2C[C@H]1O | 1000 nM | 890 nM | 45 nM | – | – | – |

— ChEMBL document CHEMBL1136401 (Bioorg Med Chem Lett, 2003)
